For one data set, the system named is rabbits. The following applies: i.m., dose 100 μg, arithmetic mean six to seven weeks after third injection. As to the method: (§1) Antibodies generated against 3′ AMNic vaccine were evaluated using a 3′ AMNic-pGlu ELISA as follows: Dynatech Immulon 4 microtiter plates (Chantilly, Va.) were coated 100 μL/well with 10 ng/mL 3′ AMNic-pGlu in 0.1 M bicarbonate buffer, pH 9.6 and allowed to incubate overnight (ON) at room temperature (RT). The plates were then aspirated and blocked with 1% BSA in PBS for one hour at RT. […] The plates were washed ([…], 0.1% BRIJ) five times and diluted samples and reference serum were loaded. The reference and samples were 2-fold diluted down the plates for a final volume of 100 μL/well and plates are incubated for 1 hour at 37° C. The plates were then washed again and loaded 100 μL/well with peroxidase-conjugated anti-species IgG, Fc specific (Jackson, West Grove, Pa.) diluted in PBB and incubated at 37° C. for one hour. The plates were washed and incubated 10 minutes at RT with 100 μl/well 3,3′,5,5′-tetramethylbenzidine (TMB) substrate (KPL, Gaithersburg, Md.) diluted 1:1 with H2O2 (supplied with TMB reagent kit). The reaction is stopped with the addition of 100 μL/well 1 M phosphoric acid and read at 450 nm on an MR4000 microtiter plate reader (Dynatech). Samples are quantified in relation to the reference using parallel line analysis.

Data set [1] has as its system rats. Particulars: for Titer, 1 injection / Titer, 2 injections / Titer, 3 injections: i.p.; for Titer, 1 injection: one week after 1st injection; for Titer, 2 injections: one week after 2nd injection; for Titer, 3 injections: one week after 3rd injection. As to the method:
Rats were immunized intraperitoneally with the vaccines three times. Injections were given two weeks apart with test bleeds performed one week following the first and second injection. The rats were then exsanguinated one week after the third injection. Freund's complete adjuvant was used for the first injection, and incomplete Freund's adjuvant for the subsequent injections. Serum samples were evaluated in an ELISA assay.
as §1

For the next data set, the system named is mice. The following applies: for Titer, 1 injection / Titer, 2 injections / Titer, 3 injections: s.c.; for Titer, 2 injections: one week after 2nd injection; for Titer, 3 injections: one week after 3rd injection.
The conditions of data set [2]: 0.5 mg/mL in 1 mL glass vials.
Description: A stability study of the nicotine-carrier conjugate of example 4 was carried out. The study used the vaccine vialed in 1 mL glass vials at a concentration of 0.5 mg/mL and the stability of the vialed vaccine was tested at three different temperatures: −70° C., 2 to 8° C. and room temperature.
The stability study consisted of monitoring and assaying the conjugate vaccine using the following:
1.) Visual observation to look for any particulates formed (turbidity, precipitation).
2.) Checking for any significant pH change.
3.) Size exclusion chromatography profile in combination with UV absorption at 260 and 280 nm to determine if the ratio of nicotine incorporation changed.
4.) Reversed phase chromatography to check for any carrier protein degradation.
5.) SDS PAGE with silver staining looking for any proteolytic cleavage of the conjugated protein.
The test system of data set [3] is rats. The following applies: three i.p. injections of 25 μg vaccine, 3 and 10 min after 0.03 mg/kg nicotine infusion over 10 seconds.
Description: To evaluate the present immunotherapy, an animal model has been developed to simulate the rapid absorption of nicotine from two cigarettes in humans. […] In this model, rats were administered 0.03 mg/kg of nicotine by i.v. infusion over 10 sec., simulating the rapid absorption of nicotine from the lungs in human smokers. Blood samples were taken at 3 and 10 min after nicotine injection for measurement of plasma nicotine.
Data set [4] has as its system rats. Nature of the data set: Locomotor effects of nicotine. Particulars: subcutaneous injection. The data set is classed as in vivo. The source says: This experiment used was designed to determine whether passive immunization could prevent an immediate CNS mediated action of nicotine. The rat model used in this experiment was developed by Dr. David Malin and is described in Malin et al. Nicotine-specific IgG reduced distribution to brain and attenuates its behavioral and cardiovascular effects in rats, submitted to the Fifth Annual Meeting of the Society for Research on Nicotine and Tobacco, San Diego, Calif., Mar. 5-7, 1999; To establish a baseline, the effect of a subcutaneous injection of 0.8 mg/kg of nicotine tartrate on locomotor activity level of rats was measured. The 0.8 mg/kg dose of nicotine tartrate is the highest dose that could be used without inducing locomotor abnormalities.
There was an increase in activity level after nicotine injection in rats that were not pre-treated with anti-[3′ AMNic-Suc-rEPA], and in rats that were pretreated with 50 mg of normal rabbit serum IgG. See FIG. 6A, right bar and FIG. 6B, left bar. This effect was suppressed by pretreating the animals with 50 mg of anti-[3′ AMNic-Suc-rEPA] immune IgG (FIG. 6B, right bar).

The conditions of data set [5]: cited from earlier work.

Where two headings read alike, the source gives them in different places.

Description for mice: Animals were immunized using standard protocols. In mice, three subcutaneous injections of vaccine were administered, two weeks apart, with test bleeds performed one week following the first and second injection, and exsanguination occurring one week following the third injection. Serum samples were evaluated in an ELISA assay, described in Example 10. The ELISA assay utilized 3′ AMNic-pGlu bound to microtiter plates.
Antibodies generated against 3′ AMNic vaccine were evaluated using a 3′ AMNic-pGlu ELISA as follows: Dynatech Immulon 4 microtiter plates (Chantilly, Va.) were coated 100 μL/well with 10 ng/mL 3′ AMNic-pGlu in 0.1 M bicarbonate buffer, pH 9.6 and allowed to incubate overnight (ON) at room temperature (RT). The plates were then aspirated and blocked with 1% BSA in PBS for one hour at RT. […] The plates were washed (9% NaCl, 0.1% BRIJ) five times and diluted samples and reference serum were loaded. The reference and samples were 2-fold diluted down the plates for a final volume of 100 μL/well and plates are incubated for 1 hour at 37° C. The plates were then washed again and loaded 100 μL/well with peroxidase-conjugated anti-species IgG, Fc specific (Jackson, West Grove, Pa.) diluted in PBB and incubated at 37° C. for one hour. The plates were washed and incubated 10 minutes at RT with 100 μl/well 3,3′,5,5′-tetramethylbenzidine (TMB) substrate (KPL, Gaithersburg, Md.) diluted 1:1 with H2O2 (supplied with TMB reagent kit). The reaction is stopped with the addition of 100 μL/well 1 M phosphoric acid and read at 450 nm on an MR4000 microtiter plate reader (Dynatech). Samples are quantified in relation to the reference using parallel line analysis.

With “3-aminomethyl-(−)-nicotine-polyglutamic acid-ADH-rEPA [3′AMNic-pGlu-ADH-rEPA]”, in the data set on rabbits, the Titer is on record as 147,000. Moreover, the Booster response entry with rats [1] and with mice was “showed the ability to induce the booster response” throughout. Further, the “Titer, 1 injection” value in the data set on rats [1] (dose 100 μg (dry weight of lyophilized conjugate)) turned out to be 0; in the data set on mice (dose 2 μg (dry weight of lyophilized conjugate), one week after 1st injection), 2; in the data set on mice (dose 10 μg (dry weight), one week after 1st injection), 2; in the data set on mice (dose 30 μg (dry weight), one week after 1st injection) it was 11. In addition, the “Titer, 2 injections” value is 1,067 in the data set on rats [1] (dose 100 μg (dry weight)), 739 with mice (dose 2 μg (dry weight)), 2,490 in the data set on mice (dose 10 μg (dry weight)) and 2,822 with mice (dose 30 μg (dry weight)). The “Titer, 3 injections” value with rats [1] (dose 100 μg (dry weight)) is given as 3,752; in the data set on mice (dose 2 μg (dry weight)), 6,586; with mice (dose 10 μg (dry weight)) it was 9,573; with mice (dose 30 μg (dry weight)) it was 8,195.
As for “3′aminomethyl-(−)-nicotine-succinyl-rEPA [3′AMNic-Suc-rEPA]”, in the data set with rabbits, the Titer is on record as 132,000. Further, the Booster response result in the data set on rats [1] and with mice was “showed the ability to induce the booster response” each time. Further, the “Titer, 1 injection” value in the data set on rats [1] (Freund's adjuvant, dose 15 μg (protein assay)) is reported as 18; in the data set with rats [1] (dose 25 μg (protein assay)) it was 4; in the data set with rats [1] (dose 50 μg (protein assay)), 353; in the data set on mice (dose 1 μg (protein assay), arithmetic mean one week after 1st injection), 0; with mice (dose 5 μg (protein assay), one week after 1st injection), 1; with mice (dose 15 μg (protein assay), one week after 1st injection) it was 3. In addition, the “Titer, 2 injections” value is given as 7,942 in the data set on rats [1] (dose 15 μg (protein assay)); 1,446 in the data set on rats [1] (dose 25 μg (protein assay)); 7,211 in the data set on rats [1] (dose 50 μg (protein assay)); 36 in the data set on mice (dose 1 μg (protein assay)); 884 in the data set with mice (dose 5 μg (protein assay)); 2,476 with mice (dose 15 μg (protein assay)). Also, the “Titer, 3 injections” value in the data set with rats [1] (dose 15 μg (protein assay)) is listed as 9,947; with rats [1] (dose 25 μg (protein assay)) it was 5,991; in the data set on rats [1] (dose 50 μg (protein assay)) it was 8,996; in the data set on mice (dose 1 μg (protein assay)), 4,280; in the data set with mice (dose 5 μg (protein assay)), 10,727; in the data set with mice (dose 15 μg (protein assay)), 14,160. The “Stability of the conjugate” value is “stability of the conjugate for six months” in data set [2] (−70° C. and 2 to 8° C.); “stability of the conjugate for six months” in data set [2] (−70° C., 2 to 80° C. and room temperature). Moreover, the “Nicotine in plasma versus non-immunized controls” value in the data set on rats [3] is “increased levels of nicotine in plasma”.
As to `CN1CCCC1c1cccnc1.O=C(O)C(O)C(O)C(=O)O` (stereo not drawn) [nicotine tartrate], the “Highest dose without inducing locomotor abnormalities” value in the data set with rats [4] came out at 0.8 mg/kg.
`CN1CCC[C@H]1c1cccnc1` [nicotine, (S)-(−)-nicotine]: the “Time to peak levels of nicotine in the blood” value in data set [5] (after smoking a cigarette) is 10 to 15 min. Further, in data set [5] (humans, smoking a cigarette), the “Arterial versus venous nicotine concentrations” value is 10 fold.

The values above are taken from US6773891B2 (priority 1998, dated 2004).
